Experimental data reported in US12578331B2, “Monolayer of PBMCs or bone-marrow cells and uses thereof” (Mobius Biotechnology GmbH, priority 2014, dated 2026).

Key:
CD34+ or pSTAT5+ cells = experiment: Personalized chemotherapy screen in PBMC monolayer of patients with myeloproliferative neoplasm / primary myelofibrosis: viability of CD34+ or pSTAT5+ cells; format: cell-based, human
Description: Method: PBMCs were cultured, fixed and stained as to protocol outlined in the above examples. 384-well plates were imaged using automated confocal microscope in 4-separate channels. We stained CD34-APC, pSTAT5-PE, GFP viability maker, and a DNA binding nuclear stain. Patient material was cultured on drugs for 18 hours before the addition of the viability marker. These images contained both clonal blasts (almost all CD34+ cells that are present in the peripheral blood,) activated cells (pSTAT5+ cells,) as well as inherently healthy cells from the same donor. […] PBMCs from peripheral blood of a patient diagnosed with primary myelofibrosis were purified over a ficol destiny gradient as described above following manufacture directions. The cells were plated as to the protocol in this application in 384-well black plastic imaging plates (corning) containing 350 FDA approved drugs in DMSO at 10 uM. The cells were plated at 20.000 cell/well in 50 ul of RPMI supplemented with 5% FCS 0.1% Pen/strep. The cells were incubated overnight and a viability dye was added (fixable live/dead green, Invitrogen following manufacture directions). The cells were fixed and permeablized in PBS containing 2% formaldehyde with 0.1% Tween-x114 for 10 minute at room temperature. The solution was then replaced with PBS containing antibody against CD34 and pSTAT5 (BD biosciences) for 1 hour. The solution was then replaced with PBS containing DAPI at manufacture recommended concentration. The plates were imaged at 10× on an Operetta (PE) automated confocal microscope in four channels using band-pass filter light separation (DAPI, GFP, PE, APC). Using an image analysis pipeline, the sensitivity of the cancer cells (CD34 and pSTAT5 positive) to each drug was compared to the sensitivity on the healthy cells (NOT CD34 and pSTAT5 positive). All results were normalized to the control, DMSO alone.

[1] = system: primary myelofibrosis (PMF)-patients; experiment: Clinical treatment of primary myelofibrosis patients already on Ruxolitinib with added Azacitidine; format: in vivo, human
Description: PBMCs from peripheral blood of a patient diagnosed with primary myelofibrosis were purified over a ficol destiny gradient as described above following manufacture directions. The cells were plated as to the protocol in this application in 384-well black plastic imaging plates (corning) containing 350 FDA approved drugs in DMSO at 10 uM. The cells were plated at 20.000 cell/well in 50 ul of RPMI supplemented with 5% FCS 0.1% Pen/strep. The cells were incubated overnight and a viability dye was added (fixable live/dead green, Invitrogen following manufacture directions). The cells were fixed and permeablized in PBS containing 2% formaldehyde with 0.1% Tween-x114 for 10 minute at room temperature. The solution was then replaced with PBS containing antibody against CD34 and pSTAT5 (BD biosciences) for 1 hour. The solution was then replaced with PBS containing DAPI at manufacture recommended concentration. The plates were imaged at 10× on an Operetta (PE) automated confocal microscope in four channels using band-pass filter light separation (DAPI, GFP, PE, APC). Using an image analysis pipeline, the sensitivity of the cancer cells (CD34 and pSTAT5 positive) to each drug was compared to the sensitivity on the healthy cells (NOT CD34 and pSTAT5 positive). All results were normalized to the control, DMSO alone. […]

Nc1ncn([C@@H]2O[C@H](CO)[C@@H](O)[C@H]2O)c(=O)n1 [Azacitidine]
viability of cells stained for CD34 or pSTAT5 (CD34+ or pSTAT5+ cells; MPN patient PBMCs, approximately 350 compounds, 18 hours on drugs, FIG. 6): decreased the viability of cells expressing the biomarkers | titration: viability of CD34+ cells compared to healthy cells and to DMSO (CD34+ or pSTAT5+ cells; same patient, FIG. 7): concentration dependent effects were seen | rank among compounds reducing percentage of viable cells expressing CD34 or pSTAT5 (CD34+ or pSTAT5+ cells; two patients with early PMF or PMF, both treated with Ruxolitinib at the time of Pharmacoscopy, FIG. 10): Top drug or highly enriched drug | number of diseased cells in patient ([1]; patient undergoing treatment using Ruxolitinib, Azacitidine additionally used, FIG. 12D): significantly reduced the number of diseased cells | clinical response of patients ([1]; two PMF patients already on Ruxolitinib (Jakavi) treated with Azacitidine): responding well
